In BigSolDB 2.1:

O=P(O)(O)c1ccccc1-c1ccccc1O
Conditions | solubility (mole fraction)
in chlorobenzene, 300.97 K | 0.013
in chlorobenzene, 304.47 K | 0.0149
in chlorobenzene, 308.86 K | 0.0156
in chlorobenzene, 313.71 K | 0.0195
in chlorobenzene, 319.15 K | 0.0274
in chlorobenzene, 325.56 K | 0.036
in chlorobenzene, 332.4 K | 0.047
in chlorobenzene, 338.93 K | 0.0597
in chlorobenzene, 342.74 K | 0.07
in chlorobenzene, 346.96 K | 0.0853
in chlorobenzene, 349.4 K | 0.0974
in chlorobenzene, 352.87 K | 0.116
in chlorobenzene, 355.3 K | 0.131
in water, 308.6 K | 0.000258
in water, 314.7 K | 0.000336
in water, 320.97 K | 0.000396
in water, 332.2 K | 0.000496
in water, 337.7 K | 0.000579
in water, 342.4 K | 0.000688
in water, 347.77 K | 0.000763
in water, 352.6 K | 0.000859
in water, 358.3 K | 0.000984
in water, 362.37 K | 0.00115
